Assay results: ChEMBL document CHEMBL1135346, “2,5-Pyridinedicarboxylic acid derivatives as non-nucleosidic reverse transcriptase inhibitors of hepatitis B virus” (Bioorg Med Chem Lett, 2002)
≈ marks a conversion by molar mass, not a printed value.

Experiments:
[1] = Inhibitory concentration against Hepatitis B virus reverse transcriptase (HBV-RT)
[2] = Inhibitory activity against Hepatitis B virus reverse transcriptase (HBV-RT) at 1 ug/mL
[3] = Inhibitory activity against Hepatitis B virus reverse transcriptase (HBV-RT) at 0.1 ug/mL
[4] = Inhibitory activity against Hepatitis B virus reverse transcriptase (HBV-RT) at 0.01 ug/mL
[5] = Inhibitory concentration against Hepatitis B virus-Reverse-transcriptase (HBV-RT)

Compound	IC50 [1] [µg/mL]	inhibition [2] [%]	inhibition [3] [%]	inhibition [4] [%]	IC50 [5] [µg/mL]
CC(C)CNc1cccnc1N1CCN(C(=O)c2ccc(C(=O)NC(C)C)cn2)CC1	0.005 (≈ 0.0118 µM)	90	66	58	
CCNc1cccnc1N1CCN(C(=O)c2ccc(C(=O)NC(C)C)cn2)CC1	0.006 (≈ 0.0151 µM)	85	67	54	
CCNc1cccnc1N1CCN(C(=O)c2ccc(C(=O)NCCN3CCOCC3)cn2)CC1	0.109 (≈ 0.233 µM)	66	52	30	
CCNc1cccnc1N1CCN(C(=O)c2ccc(C(=O)NCc3ccccn3)cn2)CC1	0.116 (≈ 0.26 µM)	70	56	19	
CC(C)(CO)NC(=O)c1ccc(C(=O)N2CCN(c3ncccc3N)CC2)nc1	0.038 (≈ 0.0954 µM)	70	62	38	
CC(C)CNc1cccnc1N1CCN(C(=O)c2ccc(C(=O)NCCO)cn2)CC1	0.009 (≈ 0.0211 µM)	86	60	54	
CCNc1cccnc1N1CCN(C(=O)c2ccc(C(=O)NC(C)(C)CO)cn2)CC1	0.068 (≈ 0.159 µM)	72	56	32	
CC(C)Nc1cccnc1N1CCN(C(=O)c2ccc(C(=O)NC3CCCC3)cn2)CC1	0.029 (≈ 0.0664 µM)	75	65	39	
CC(C)Nc1cccnc1N1CCN(C(=O)c2ccc(C(=O)NC(C)(C)CO)cn2)CC1		80	65	62	0.001 (≈ 0.00227 µM)
CCNc1cccnc1N1CCN(C(=O)c2ccc(C(=O)NCCO)cn2)CC1	0.007 (≈ 0.0176 µM)	84	69	52	
CC(C)CNc1cccnc1N1CCN(C(=O)c2ccc(C(=O)Nc3ncccc3O)cn2)CC1	0.17 (≈ 0.357 µM)	71	46	13	
Nc1cccnc1N1CCN(C(=O)c2ccc(C(=O)NCCO)cn2)CC1	0.003 (≈ 0.0081 µM)	74	67	54	
CC(C)NC(=O)c1ccc(C(=O)N2CCN(c3ncccc3N)CC2)nc1	0.023 (≈ 0.0624 µM)	79	62	43	
Cc1cc(NC(=O)c2ccc(C(=O)N3CCN(c4ncccc4NC(C)C)CC3)nc2)no1	0.11 (≈ 0.245 µM)	72	50	25	
CCNc1cccnc1N1CCN(C(=O)c2ccc(C(=O)NCCOC)cn2)CC1	0.049 (≈ 0.119 µM)	75	57	36	
COCCCNC(=O)c1ccc(C(=O)N2CCN(c3ncccc3NCC(C)C)CC2)nc1	0.123 (≈ 0.271 µM)	72	51	20	
COCCNC(=O)c1ccc(C(=O)N2CCN(c3ncccc3NCC(C)C)CC2)nc1	0.007 (≈ 0.0159 µM)	85	70	52	
CC(C)Nc1cccnc1N1CCN(C(=O)c2ccc(C(=O)NC(C)(C)C)cn2)CC1	0.002 (≈ 0.00471 µM)	88	72	61	
Nc1cccnc1N1CCN(C(=O)c2ccc(C(=O)NCc3ccccn3)cn2)CC1	0.106 (≈ 0.254 µM)	72	54	22	
CC(C)CNc1cccnc1N1CCN(C(=O)c2ccc(C(=O)NC(C)(C)CO)cn2)CC1	0.001 (≈ 0.0022 µM)	90	71	63	
CC(C)NC(=O)c1ccc(C(=O)N2CCN(c3ncccc3NC(C)C)CC2)nc1	0.149 (≈ 0.363 µM)	65	51	23	
COC(CNC(=O)c1ccc(C(=O)N2CCN(c3ncccc3NC(C)C)CC2)nc1)OC	0.005 (≈ 0.011 µM)	87	65	57	
CC(C)CNc1cccnc1N1CCN(C(=O)c2ccc(C(=O)NC3CC3)cn2)CC1	0.002 (≈ 0.00473 µM)	87	71	60	

Other lines, results leading:

IC50 [1] [µg/mL]	inhibition [2] [%]	inhibition [3] [%]	inhibition [4] [%]	IC50 [5] [µg/mL]	Compound
0.124 (≈ 0.276 µM)	70	53	20		Cc1ccn(NC(=O)c2ccc(C(=O)N3CCN(c4ncccc4NC(C)C)CC3)nc2)n1
0.012 (≈ 0.0281 µM)	71	60	49		CC(C)Nc1cccnc1N1CCN(C(=O)c2ccc(C(=O)NCCCO)cn2)CC1
0.001 (≈ 0.0021 µM)	89	72	65		CC(C)Nc1cccnc1N1CCN(C(=O)c2ccc(C(=O)NCCCn3ccnc3)cn2)CC1
0.13 (≈ 0.295 µM)	63	53	28		COCCCNC(=O)c1ccc(C(=O)N2CCN(c3ncccc3NC(C)C)CC2)nc1
0.085 (≈ 0.191 µM)	74	55	26		CC(C)Nc1cccnc1N1CCN(C(=O)c2ccc(C(=O)Nc3ccccn3)cn2)CC1
0.261 (≈ 0.633 µM)	54	51	30		CC(C)Nc1cccnc1N1CCN(C(=O)c2ccc(C(=O)NCCO)cn2)CC1
0.002 (≈ 0.00408 µM)	88	72	60		CC(C)CNc1cccnc1N1CCN(C(=O)c2ccc(C(=O)NCCCn3ccnc3)cn2)CC1
0.007 (≈ 0.0152 µM)	77	62	53		CC(C)Nc1cccnc1N1CCN(C(=O)c2ccc(C(=O)NCc3ccccn3)cn2)CC1
0.237 (≈ 0.58 µM)	62	51	5		CC(C)Nc1cccnc1N1CCN(C(=O)c2ccc(C(=O)NC3CC3)cn2)CC1
0.012 (≈ 0.0249 µM)	70	60	49		CC(C)Nc1cccnc1N1CCN(C(=O)c2ccc(C(=O)NCCN3CCOCC3)cn2)CC1
0.002 (≈ 0.00471 µM)	83	65	61		CC(C)CNC(=O)c1ccc(C(=O)N2CCN(c3ncccc3NC(C)C)CC2)nc1
0.001 (≈ 0.00234 µM)	80	68	60		COCCNC(=O)c1ccc(C(=O)N2CCN(c3ncccc3NC(C)C)CC2)nc1
